Measured values taken from US10143667B2, “Ceramide-like function imparting agent” (KAO CORPORATION, priority 2013, dated 2018).

Key:
[1] = Evaluation of lamellar-formation ability (X-ray diffraction); type: physicochemical; design: key to Evaluation of X-ray diffraction measurement: wide-angle X-ray measurement: A: diffraction peaks originating from crystals of stearic acid and cholesterol disappeared and only the peaks originating from a lamellar structure were observed near 2θ=22°; B: diffraction peaks originating from crystals of stearic acid and cholesterol remained but peaks originating approximately from a lamellar structure were observed; C: peaks originating from a lamellar structure were observed only partly; D: no peaks originating from a lamellar structure were observed; key to Evaluation of X-ray diffraction measurement: small-angle X-ray measurement: E: diffraction peaks originating from a periodic structure of lamellar structure were observed; F: no diffraction peaks were observed; conditions: equimolar mixture of stearic acid, cholesterol and sample, 30 wt % ion-exchange water
Method: Evaluation of lamellar-formation ability was conducted according to the method by Mizushima et al. (Lipids, 30(4), 327-332 (1995)).
Each of stearic acid and cholesterol, used as representatives of fatty acids that are horny layer intercellular lipids, as well as a sample to be evaluated was weighed to give an equimolar mixture, and an ion-exchange water was added thereto in an amount of 30 wt % of the weight of the lipids. The mixture was heat-melted and then cooled to give an evaluation sample.
Wide-angle X-ray diffraction apparatus ((PANalytical) X' Pert MRD High Resolution X-ray Diffractometer)
Small-angle X-ray scattering apparatus ((NANO Viewer manufactured by RIGAKU Corporation), Small-angle X-ray scattering)
In the case where the wide-angle X-ray diffraction apparatus was used, sampling for measurement was conducted by finely grinding a sample in an agate mortar and packing the sample in a measurement cell to give a flat surface. In the case of small-angle X-ray scattering apparatus, the sample was packed in a cell made of stainless steel having grid openings of approximately 4 mm in width and 2 mm in depth.
Conditions for wide-angle X-ray diffraction measurement: measurement cell: a cell for exclusive use made of stainless steel, applied voltage: 45 kV, applied current: 40 mA.
measured range: 2θ=3° to 45°, measurement speed: 2θ=1°/min.
Conditions for small-angle X-ray measurement: measurement cell: a sample that was packed in a stainless steel holder having grid openings was measured.
applied voltage: […], applied current: 30 mA, X-ray irradiation period: 30 minutes, measured at a camera length of from 450 to 650 mm using a detector with an imaging plate.
In a wide-angle X-ray diffraction measurement, a symbol A was assigned to a sample wherein diffraction peaks originating from crystals of stearic acid and cholesterol disappeared and only the peaks originating from a lamellar structure were observed near 2θ=22°, a symbol B was assigned to a sample wherein diffraction peaks originating from crystals of stearic acid and cholesterol remained but peaks originating approximately from a lamellar structure were observed, a symbol C was assigned to a sample wherein peaks originating from a lamellar structure were observed only partly, and a symbol D was assigned to a sample wherein no peaks originating from a lamellar structure were observed. In addition, in a small-angle X-ray measurement, a symbol E was assigned to a sample wherein diffraction peaks originating from a periodic structure of lamellar structure were observed, and a symbol F was assigned to a sample wherein no diffraction peaks were observed.

[2] = Evaluation as to occlusion (TEWL-inhibition), lipid-impregnated filter paper; conditions: filter paper immersed in 10% lipid mixture solution; average of three measurements; versus solvent-only filter
Method: Evaluation as to occlusion was conducted according to the method by Akasaki et al. (Fragrance Journal, extra edition, No. 13, p. 65, 1994).
Each of stearic acid and cholesterol, used as representatives of fatty acids that are horny layer intercellular lipids, and a sample to be evaluated was weighed into a screw tube, and a mixed liquid of chloroform and methanol (9:1 by volume) was used to give a 10% solution of the lipid mixture (w/v). A filter paper ([…] Co. Ltd., No. 5C, ϕ=21 mm) was immersed in the 10% solution, and then taken out, dried at room temperature, heated at 90° C. for one hour, hydrated by a water sprayer, heat-treated at 60° C. for 12 hours, and then cooled. The filter thus prepared was set in a vial charged with ion-exchange water (20 ml), and the weight of the filter was measured over time to calculate an amount of TEWL. As a control, was measured an amount of TEWL of a filter which had been immersed only in a mixed liquid of chloroform and methanol (9:1 by volume). A control rate of TEWL (%) was calculated according to the following equation: Control rate of TEWL (%)=(1−amount of TEWL of evaluated sample/amount of TEWL of control)×100. 2) Results

[3] = Measurement on bonded water content (differential scan calorimetric analysis); type: physicochemical; conditions: equimolar mixture of stearic acid, cholesterol and sample plus ion-exchange water; DSC
Method: Measurement on bonded water content was conducted according to the method by Akasaki et al. (Fragrance Journal, extra edition, No. 13, pp. 66-67, 1994).
1) Differential scan calorimetric analyzer: (DSC6100 (SII Seiko Instruments Inc.)).
A sample prepared by adding ion-exchange water to an equimolar mixture of stearic acid and cholesterol, both used as representatives of fatty acids that are a horny layer intercellular lipid, and a sample to be evaluated, was encapsulated in a cell, and the water content thereof was measured. The temperature of the sample was raised from −40° C. at a rate of 1° C./minute to obtain an enthalpy change accompanied by the temperature raise. A bonded water content was determined from the relation between a water content of a lipid mixture (an amount of moisture absorbed) and a change of peak of enthalpy (melting heat), and an enthalpy change was obtained from the point 0.

| Compound | Evaluation of X-ray diffraction measurement: small-angle X-ray measurement [1] | Evaluation of X-ray diffraction measurement: wide-angle X-ray measurement [1] | TEWL inhibition rate [2] [%] | Bonded water content [3] [% by mass] |
| --- | --- | --- | --- | --- |
| 2-(hexadecyl/octadecyl)-N,N,-bis(2-hydroxyethyl)succinamide [Compound 2] | E | B | – | – |
| CCCCCCCCCCCCCCCC(=O)NCCO [Comparative Compound 1, N-(2-hydroxyethyl)palmitamide, reference compound] | F | D | – | – |
| CCCCCCCCCCCCC/C=C/CC(CC(=O)NCCCCCCCCCCCCCCCC)C(=O)NCCCCCCCCCCCCCCCC (centres unmarked) [Comparative Compound 3, (E)-2-(hexadeca-2-en-1-yl)-N,N,-dihexadecylsuccinamide, reference compound] | F | D | – | – |
| CCCCCCCCCCCCCCCCOCC(O)CN(CCO)C(=O)CCCCCCCCCCCCCCC (centres unmarked) [Sphingolipid E, reference compound] | E | A | 32.8 | 7.1 |
| (E)-2-(eicosa/docosa/tetracosa)-2-en-1-yl)-N,N,-bis(2-hydroxyethyl)succinamide [Compound 5] | E | A | – | – |
| (E)-2-(hexadeca/octadeca)-2-en-1-yl)-N,N,-bis(1-hydroxypropan-2-yl)succinamide [Compound 4] | E | C | – | – |
| (E)-2-(hexadeca/octadeca)-2-en-1-yl)-N,N,-bis(2-(2-hydroxy-ethoxy)ethyl)succinamide [Comparative Compound 2, reference compound] | F | D | 24.2 | – |
| (E)-2-(hexadeca/octadeca)-2-en-1-yl)-N,N,-bis(2-hydroxyethyl)succinamide [Compound 1] | E | B | – | – |
| (E)-2-(hexadeca/octadeca)-2-en-1-yl)-N-hexadecyl-N-(2-hydroxyethyl)succinamide [Comparative compound 4] | – | – | 27.4 | – |
| (E)-N,N,-bis(1,3-dihydroxy-2-(hydroxymethyl)propan-2-yl)-2-((hexadeca/octadeca)-2-en-1-yl)-succinamide [Compound 7] | E | A | – | – |
| (E)-N,N,-bis(1,3-dihydroxy-2-methylpropan-2-yl)-2-((hexadeca/octadeca)-2-en-1-yl)-succinamide [Compound 6] | E | B | – | – |
| (E)-N,N,-bis(3-hydroxypropyl)-2-((hexadeca/octadeca)-2-en-1-yl)-succinamide [Compound 3] | E | C | – | – |
